Data as given in patent US8188053B2, “Anti-inflammatory peptides” (The University of Manchester, priority 2005, dated 2012).
Entries after “also recorded” stand apart in the source; their conditions may differ.

How the values were obtained:
Type in all cases: in vivo
[1] = system: allergen (oxazolone) induced Langerhans Cell (LC) migration; assay: allergen (oxazolone) induced Langerhans Cell (LC) migration after prior topical application of peptide; conditions: for inhibition of allergen-induced LC migration: prior topical exposure to peptide, subsequent oxazolone at the same site; for biological activity (epidermal LC migration), equimolar comparison: equimolar doses (1.38 μM): 0.5 μg hTRX, 0.04 μg 9-mer, 0.025 μg KMIKP, 0.016 μg CGPC
Procedure: Various tissue studies are conducted to examine the effect of each of the aforementioned polypeptides on allergen (oxazolone) induced Langerhans Cell (LC) migration. Applications are in μg unless otherwise stated.
The purpose of this experiment is to determine whether topical application of peptide 1 is able to influence the integrity of LC migration induced by subsequent exposure at the same site to oxazolone, a potent contact allergen known to cause the mobilization of LC. The results of a representative experiment are illustrated in FIG. 1.
The purpose of this experiment is to determine whether topical application of peptide 3 is able to influence the integrity of LC migration induced by subsequent exposure at the same site to oxazolone. The results of three independent experiments are illustrated in FIG. 2. […] The conclusion drawn is that topically applied peptide 3 is able to inhibit one or more biological processes required for the effective mobilization and migration of LC in response to a stimulus, in this instance the contact allergen oxazolone.

[2] = system: Langerhans Cell migration induced by IL-1β; assay: Langerhans Cell migration provoked by intradermal administration of homologous IL-1β after prior topical peptide; conditions: prior topical exposure; id administration of homologous IL-1β
Description: (§1) The purpose of this experiment is to investigate whether the 9-mer peptide (CGPCKMIKP; SEQ ID NO: 9) could affect Langerhans Cell migration induced by either IL-1β or TNF-α. The results of a representative experiment are illustrated in FIG. 9. […] The interpretation is that topical administration of the 9-mer peptide is associated with a perturbation of IL-1β function.

[3] = system: Langerhans Cell migration induced by TNF-α; assay: Langerhans Cell migration induced by intradermal injection of homologous TNF-α after prior topical peptide; conditions: prior topical exposure; intradermal (id) injection of homologous TNF-α
Description: as §1

AGPAKMIKP [cysteine free 9-mer peptide]
inhibition of allergen-induced LC migration [1]: active

ANKEKLEATINELV [peptide 7]
inhibition of allergen-induced LC migration [1]: does not inhibit

CGPC [reference compound]
biological activity (epidermal LC migration), equimolar comparison [1]: all but the CGPC (SEQ ID NO: 22) peptide appear to exhibit biological activity

CGPCKMIKP [9-mer peptide]
influence on Langerhans Cell migration provoked by IL-1β [2]: without influence
inhibition of Langerhans Cell migration induced by TNF-α [3]: almost complete inhibition
biological activity (epidermal LC migration), equimolar comparison [1]: appear to exhibit biological activity
inhibition of allergen-induced LC migration [1]: activity of the 9-mer peptide at all doses tested; also recorded: active
inhibition of allergen-induced LC migration ([1]; listed as 9-mer): active

CGPCKMIKPFFHSLSEKYSN [peptide 3]
inhibition of allergen-induced LC migration at the highest concentration tested ([1]; highest concentration (0.5 μg) tested, three independent experiments, oxazolone): complete (or near complete) inhibition
inhibition of allergen-induced LC migration [1]: some indication for a dose-related inhibition; also recorded: substantial inhibition; also recorded: active
variation in activity between peptide synthesis batches ([1]; two independent preparations of peptide 3, oxazolone-induced LC migration): only a small variation in activity

IPCMPKCKG [scrambled 9-mer, reference compound]
inhibition of allergen-induced LC migration [1]: not biologically active

KMIKP
biological activity (epidermal LC migration), equimolar comparison [1]: appear to exhibit biological activity

KMIMP
inhibition of allergen-induced LC migration [1]: active

SATYCGPCKMIKP [peptide RV-1]
inhibition of allergen-induced LC migration [1]: does inhibit; also recorded: active

VKQIESKTAFQEALDAAGDK [peptide 1]
inhibition of allergen-induced LC migration [1]: does not inhibit

B1: hTRX: Recombinant human thioredoxin (SEQ ID NO. 14), from which the peptides of the invention are derived (protein, listed as Homo sapiens)
chain: MVKQIESKTAFQEALDAAGDKLVVVDFSATWCGPCKMIKPFFHSLSEKYSNVIFLEVDVDDCQDVASECEVKCMPTFQFFKKGQKVGEFSGANKEKLEATINELV
biological activity (epidermal LC migration), equimolar comparison [1]: appear to exhibit biological activity
